{"source": "patent US20080176885A1", "about": "“Novel synergistic opioid-cannabinoid codrug for pain management” (University of Kentucky, priority 2006, published 2008)", "tested_on": "thermally-induced nociception in rats", "test": "Tail-flick test (thermally-induced nociception) in rats", "assay_type": "in vivo, rat (male Sprague-Dawley)", "details": "i.p., rat, cut off 10 seconds", "experimental": "The purpose of the study was to determine the analgesic effect of tetrahydrocannabinol (Δ-9 THC) alone, Morphine Alone and Δ-9 THC in combination with Morphine on thermal-induced pain was determined. […] The dose response curve for the tail flick test and the analgesic effects of various doses of Morphine alone, Δ-9 THC alone as well as various doses of Δ-9 THC combined with various doses of morphine was determined by comparing pre-injection baseline values to post-injection values.\nThe tail-flick test was performed according to the following procedure:\nMale Sprague-Dawley rats all with an approximate age of 85 to 90 days were each weighed prior to being subjected to any tests, on the day of the experiment. Each rat was only used for one day of experiments, and given only one dose, or dose combination. • 1. Prior to tail-flick test, rats are habituated for three days to handling and the tail flick procedure, without heat exposure. • 2. On the day of the experiment, warm up the tail-flick apparatus (IITC Model 33, Life Science, Woodland Hills, Calif.) for at least 30 minutes. • 3. Adjust the intensity of the lamp so that baseline tail-flick latency for rats is equal to approximately 2.0 seconds. […] Place rat in a mitten and blacken tail with ink approximately 2 inches in length at 1 inch from the tip of the tail. • 6. Place the tail flatly in the groove of the tail-flick apparatus. • 7. Push start to begin heat exposure. The lamp will turn off automatically when the tail flicks from the heat source. • 8. For each rat, a baseline score is determined prior to injection. TFL (tail flick latency) is measured twice in an approximate 15 minute intervals and an average of the two times determines the baseline. • 9. Once the baseline value is determined, TFL is measured, following the injection of drugs, at times 15, 30, 60 and 120 minutes.\nAll solutions were made on the day of the experiment. Not all of the solutions described below were used in every experiment. The drug combinations vary for each experiment. Each particular combination for an experiment is reported in the corresponding table below.\nEach animal is given an injection of morphine that is 1 ml/kg body weight, and an injection of THC or control that is varies by dose and the injection volume is calculated as set forth above.", "key": {"[1]": {"details": "Example 10, dose Z: 2 mg/kg morphine 30 minutes after vehicle"}}, "note": "Values joined by “and” are separate entries in the source; they are usually repeats but may differ in a detail not shown here. Equal values may be shown once."}
{"smiles": "CN1CC[C@]23c4c5ccc(O)c4O[C@H]2[C@@H](O)C=C[C@H]3[C@H]1C5", "note": "[Morphine]", "values": [{"measurement": "Tail Flick Latency (TFL, seconds) 15 min", "setting": "Example 7, dose Z: vehicle and 2 mg/kg morphine, 15 min", "value": "3.08 s and 3.12 s and 2.28 s"}, {"measurement": "Tail Flick Latency (TFL, seconds) 30 min", "setting": "Example 7, dose Z: vehicle and 2 mg/kg morphine", "value": "2.96 s and 2.83 s and 4.73 s"}, {"measurement": "Tail Flick Latency (TFL, seconds) 60 min", "setting": "Example 7, dose Z: vehicle and 2 mg/kg morphine, 60 min", "value": "2.22 s and 3.69 s and 3.85 s"}, {"measurement": "Tail Flick Latency (TFL, seconds) 30 min", "setting": "Example 9, dose Z: 2 mg/kg Morphine and vehicle", "value": "4.22 s and 4.99 s and 3.00 s"}, {"measurement": "Tail Flick Latency (TFL, seconds) 60 min", "setting": "Example 9, dose Z: 2 mg/kg Morphine and vehicle, 60 min", "value": "2.91 s and 5.25 s and 3.97 s"}, {"measurement": "Tail Flick Latency (TFL, seconds) 120 min", "setting": "Example 9, dose Z: 2 mg/kg Morphine and vehicle, 120 min", "value": "2.68 s and 4.83 s and 2.67 s"}, {"measurement": "Tail Flick Latency (TFL, seconds) 15 min", "setting": "Example 10, dose Z: 2 mg/kg morphine 30 minutes after vehicle, 15 min", "value": "2.41 s and 2.99 s and 3.89 s and 2.36 s and 2.97 s and 3.02 s"}, {"measurement": "Tail Flick Latency (TFL, seconds) 30 min", "setting": "[1]", "value": "2.90 s and 3.58 s and 4.86 s and 4.07 s and 4.39 s and 3.90 s"}, {"measurement": "Tail Flick Latency (TFL, seconds) 60 min", "setting": "Example 10, dose Z: 2 mg/kg morphine 30 minutes after vehicle, 60 min", "value": "3.26 s and 3.14 s and 3.96 s and 3.86 s and 3.99 s and 4.01 s"}, {"measurement": "Tail Flick Latency (TFL, seconds) 120 min", "setting": "Example 10, dose Z: 2 mg/kg morphine 30 minutes after vehicle, 120 min", "value": "2.68 s and 2.94 s and 3.18 s and 3.06 s and 3.23 s"}, {"measurement": "Tail Flick Latency (TFL, seconds) 180 min", "setting": "[1]", "value": "2.15 s and 2.64 s and 2.59 s and 2.18 s and 2.56 s and 2.67 s"}, {"measurement": "Tail Flick Latency (TFL, seconds) 15 min", "setting": "dose B: 3 mg/kg morphine and vehicle, 15 min post-injection", "value": "2.38 s and 2.19 s and 2.74 s"}, {"measurement": "Tail Flick Latency (TFL, seconds) 60 min", "setting": "dose B: 3 mg/kg morphine and vehicle, 60 min post-injection", "value": "5.36 s and 4.63 s and 4.80 s"}, {"measurement": "Tail Flick Latency (TFL, seconds) 120 min", "setting": "dose B: 3 mg/kg morphine and vehicle, 120 min post-injection", "value": "4.02 s and 4.55 s and 3.99 s"}]}
{"smiles": "CCCCCc1cc(O)c2c(c1)OC(C)(C)[C@@H]1CCC(C)=C[C@@H]21", "note": "[Δ-9 THC, delta-9-tetrahydrocannabinol]", "values": [{"measurement": "Tail Flick Latency (TFL, seconds) 15 min", "setting": "Example 6, dose X: saline and 2 mg/kg Δ-9 THC, 15 min", "value": "2.33 s and 1.77 s and 2.10 s"}, {"measurement": "Tail Flick Latency (TFL, seconds) 15 min", "setting": "Example 8, dose X: saline and 2 mg/kg Δ-9 THC, 15 min", "value": "2.57 s and 1.88 s and 3.65 s"}, {"measurement": "Tail Flick Latency (TFL, seconds) 180 min", "setting": "dose C: saline and 8 mg/kg Δ-9 THC", "value": 10.0, "unit": "s"}, {"measurement": "Tail Flick Latency (TFL, seconds) 240 min", "setting": "dose C: saline and 8 mg/kg Δ-9 THC, 240 min", "value": "9.21 s and 8.98 s and 7.28 s"}, {"measurement": "Tail Flick Latency (TFL, seconds) 15 min", "setting": "dose E: saline and 1 mg/kg Δ-9 THC, 15 min", "value": "2.12 s and 2.03 s"}, {"measurement": "Tail Flick Latency (TFL, seconds) 30 min", "setting": "dose E: saline and 1 mg/kg Δ-9 THC", "value": "2.56 s and 2.15 s"}, {"measurement": "Tail Flick Latency (TFL, seconds) 60 min", "setting": "dose E: saline and 1 mg/kg Δ-9 THC, 60 min", "value": "3.98 s and 5.07 s"}, {"measurement": "Tail Flick Latency (TFL, seconds) 120 min", "setting": "dose E: saline and 1 mg/kg Δ-9 THC, 120 min", "value": "4.20 s and 3.09 s"}, {"measurement": "Tail Flick Latency (TFL, seconds) 30 min", "setting": "dose G: saline and 4 mg/kg Δ-9 THC", "value": "5.07 s and 5.89 s and 5.10 s"}, {"measurement": "Tail Flick Latency (TFL, seconds) 60 min", "setting": "dose G: saline and 4 mg/kg Δ-9 THC, 60 min", "value": "6.24 s and 8.76 s and 6.48 s"}]}
